How the values were obtained:
VM-M3 tumour = assay: VM-M3 orthotopic GBM model: bioluminescence imaging and survival; format: in vivo, mouse (VM/Dk)
Procedure: FIGS. 1A-1F. Restricted Ketogenic diet with DON reduces progression and mortality of the VM-M3 GBM. VM/Dk inbred mice were implanted orthotopically with a small (1.0 mm×1.0 mm) tissue fragment from the VM-M3 tumour on day 0. The implanted mice were divided into two groups on day 4 and were fed either; a standard chow diet unrestricted or ad-libitum (SD-UR), or a ketogenic diet (KD-R) in restricted amounts to reduce body weight by about 15%. DON (0.1-1.0 mg/kg) was injected i.p. 7 days following orthotopic tumour implantation. […] 1A. All mice were imaged in-vivo and terminated on day 14 or 15 when all control mice appeared moribund (experiments 1 & 2). For experiment 1, bioluminescence was scored from 0-4, following the administration of lower doses of DON (0.1 and 0.5 mg/kg). Values are expressed as the mean+/−SEM and a one-way analysis of variance followed by Tukey's post hoc test was performed to determine the significance between groups, FIG. 1B. In experiment 2, in-vivo bioluminescent photon values were obtained following the administration of DON (1.0 mg/kg) in mice under the KD-R, FIG. 1C. The average in-vivo bioluminescent photon values were calculated for the KD-R (n=4) and KD-R+DON (n=8) mice in experiment 2. Values are presented as the mean+/−SEM and the P value was calculated using a two-tailed student's t-test, FIG. 1D. in-vivo bioluminescent images of 3 representative mice from both study groups in experiment 2 are shown, FIG. 1E. For experiment 3, a survival study was performed, and a Kaplan Meier survival plot was configured for SD-UR (n=15), SD-UR+DON (n=10), KD-R (n=10), and KD-R+DON (n=10), FIG. 1F.
FIGS. 2A-2C. Restricted Ketogenic diet with DON reduces VM-M3 GBM bioluminescence. VM/Dk mice were implanted with a VM-M3 tumour as described in the previous figures. Mouse brains were imaged ex-vivo on day 14 or 15. Mice were imaged ex-vivo after in-vivo bioluminescent imaging, as described in the previous figures. Individual ex-vivo bioluminescent photon values were measured following the administration of DON (1.0 mg/kg) in KD-R mice, FIG. 2A. From the individual measurements, the average ex-vivo bioluminescent photon value was calculated for both the KD-R (n=6) and KD-R+DON (n=8) mouse groups. Values are presented as the mean+/−SEM and significance of differences was determined following a two-tailed student's t-test, FIG. 2B. ex-vivo bioluminescent images of brains from representative mice in experiment 2 are shown in comparison to SD-UR, FIG. 2C.
To observe the effect of the KD-R and DON on the VM-M3 tumour model, three consecutive experiments were conducted. Experiment 1 included four groups (SD-UR; SD-UR+DON; KDR; KDR+DON) with lower DON dosages (0.1 and 0.5 mg/kg). Experiment 2 involved both in-vivo and ex-vivo imaging of two study groups (KD-R and KD-R+DON) following the administration of a higher dose of DON (1.0 mg/kg). Experiment 3, a survival study, also used the higher DON dose (1.0 mg/kg) and included the four groups from Experiment 1 (SD-UR; SD-UR+DON; KDR; KDR+DON) ( ).
The KD-R+DON treatment was performed as outlined in the study timeline (FIG. 1A). In experiment 1, two doses of DON (0.1 and 0.5 mg/kg) were used in both the SD-UR and KD-R groups (FIG. 1B). d-luciferin was injected i.p. 15 days after tumour implantation, and in-vivo bioluminescence imaging was performed. The total VM-M3 tumour bioluminescence photon values were scored from 0 to 4, with 0 being the baseline value and 4 being the highest value.
Experiment 2 involved a larger number of mice that were treated with a higher dose of DON (1.0 mg/kg). Due to the observed synergy between the KD-R and DON in experiment 1, only the KD-R group was selected for further experiments. All mice in this experiment expressed a significant amount of tumour burden as observed by in-vivo imaging on day 7 (data not shown). […] All untreated SD-UR control mice died between day 15 and 18. […]

VM-M3 tumour cells = assay: VM-M3 brain tumour histology (H&E) and Ki-67 staining; format: in vivo, mouse (VM/Dk); settings: compared with SD-UR brains
From the text: VM/Dk mice were implanted with VM-M3 cells orthotopically in the brain on day 0 as described in the previous figures. The brains were fixed in formalin for histology, processed, and stained as described in Methods. Histological analysis (H&E) was used to validate the presence of tumour cells, FIG. 3A. […] DAPI is used for the Ki-67 negative nuclear stain.
Brain tumour samples were fixed in 10% neutral buffered formalin (Sigma) and embedded in paraffin. The brain tumour samples were sectioned at 5 μm, were stained with haematoxylin and eosin (H&E) at the Harvard University Rodent Histopathology Core Facility (Boston, Mass.), and were examined by light microscopy using either a Zeiss Axioplan 2 or Nikon SMZ1500 light microscope. Images were acquired using SPOT Imaging Solutions (Diagnostic Instruments, Inc.) cameras and software. All histological sections were evaluated at the Harvard University Rodent Histopathology Core Facility.
For immunohistochemistry, the tissue sections from untreated and treated tumour bearing mice were deparaffinized, rehydrated, and washed. The tissue sections were then heat treated (95° C.) in antigen unmasking solution (Vector Laboratories, Burlingame, Calif.) for 30 min. […] Nuclei were stained using NucBlue (Invitrogen). Images were captured by the EVOS FL Cell Imaging System fluorescent microscope. […]

[1] = Toxicity and body weight observations in DON treated mice; format: in vivo, mouse
Procedure: FIG. 11. Body weights of VM-M3 tumour bearing mice. VM-M3/Fluc tumour fragments were implanted as described in FIGS. 1A-1F. Body weight was determined every alternate day. Initial and final body weight data are presented. Mice fed the SD-UR began to drop body weight on the day of termination due to tumour burden. Mice fed the KD-R maintained a 15-18% body weight reduction throughout the experiment due to reduced caloric intake. Initial and final body weights were similar in the SD-UR and the SD-UR+DON mice (n=15 mice/group). Final body weights were lower than initial body weights in the KD-R and the KD-R+DON mice (n=15 mice/each group). Values are expressed as the mean+/−SEM and a two tailed student's t-test was performed between the initial and final values of each group (*=p<0.01).
It is proposed that issues with DON toxicity arise when there is an appreciable competition for glutamine between host and tumour. There is also increasing evidence supporting the protective role of glutamine supplementation for cancer patients^46. Since tumour consumption of glutamine is dissipative, glutamine supplementation might not increase tumour growth^46. However, additional preclinical studies are needed to determine if glutamine supplementation could be used together with DON. The present disclosure provides that strategies for managing toxicity of a therapeutically effective drug would be as important as developing a new drug.
The following studies were to determine if the simultaneous targeting of glucose and glutamine, while under therapeutic ketosis, could manage late stage growth and enhance survival without toxicity in two different syngeneic mouse models of GBM. DON was administered 7 days after tumour implantation, which is considered late for the VM-M3/Fluc tumour, as neurological signs and symptoms first appear at 10 to 12 days post implantation with morbidity occurring in 100% of the tumour-bearing mice by 14-18 days^2. Additional results were obtained in C57BL/6J inbred mice bearing the syngeneic CT-2A high-grade stem cell glioma^32. […]

[N-]=[N+]=CC(=O)CC[C@H](N)C(=O)O [DON, 6-diazo-5-oxo-L-norleucine]
reduction in tumour growth (VM-M3 tumour; DON 0.5 mg/kg once or twice per week, bioluminescent imaging): 60 to 70%
resolution of the brain tumour (VM-M3 tumour; DON 1.0 mg/kg, same schedule, bioluminescent imaging): near complete resolution
lower photon value compared to control SD-UR group (VM-M3 tumour; experiment 1, DON 0.1 and 0.5 mg/kg, in-vivo bioluminescence day 15): 44%
average ex-vivo photon value (VM-M3 tumour; experiment 2, DON 1.0 mg/kg, FIG. 2B): significant reduction
mice with baseline value of in-vivo bioluminescence (VM-M3 tumour; experiment 2, KD-R fed mice, DON 1.0 mg/kg, day 14 or 15): 7 out of the 8
individual ex-vivo bioluminescent values (VM-M3 tumour; experiment 2, KD-R fed mice, DON 1.0 mg/kg, resected brains): below the baseline value
average in-vivo photon value (VM-M3 tumour; experiment 2, KD-R fed mice, DON 1.0 mg/kg, versus KD-R): significant reduction
histology (H&E) of primary tumour (VM-M3 tumour cells): significant area of dead cells
toxic effects in non-tumour-bearing VM/Dk mice ([1]; DON at the concentrations used in this study): no toxic effects
initial versus final body weight ([1]; VM-M3 tumour bearing mice, n=15 mice/group): similar
toxicity in DON treated tumour-bearing mice ([1]; until end of study, when mild muscle loss was observed in some mice): No noticeable toxicity

Source: US20200316096A1, “COMBINATION OF DIET AND DRUG THERAPY FOR TREATING CANCER” (Trustees of Boston College, priority 2019, published 2020)
